Experiments:
Format in all cases: in vivo
Alopecurus myosuroides = assay: Pre-emergence herbicidal activity against ALOMY; details: Alopecurus myosuroides, 504 h, dosage 80 g/ha, scored visually after about 3 weeks vs untreated controls (100% = plants have died, 0% = like control plants)
From the text: (§1) 1. Pre-Emergence Herbicidal Action and Crop Plant Compatibility Seeds of monocotyledonous and dicotyledonous weed plants and crop plants are placed in plastic or wood fiber pots and covered with soil. The compounds of the invention, formulated in the form of wettable powders (WP) or as emulsion concentrates (EC), are then applied onto the surface of the covering soil as aqueous suspension or emulsion with addition of 0.5% additive at a water application rate of 600 l/ha (converted). After the treatment, the pots are placed in a greenhouse and kept under good growth conditions for the trial plants. After about 3 weeks, the effect of the preparations is scored visually in comparison with untreated controls as percentages. For example, 100% activity=the plants have died, 0% activity=like control plants. ABUTH: Abutilon theophrasti ALOMY: Alopecurus myosuroides

Amaranthus retroflexus [1] = assay: Pre-emergence herbicidal activity against AMARE; details: Amaranthus retroflexus, 504 h, dosage 80 g/ha
From the text: as §1, with “AMARE: Amaranthus retroflexus AVEFA: Avena fatua” for “ABUTH: Abutilon theophrasti ALOMY: Alopecurus myosuroides”

Polygonum convolvulus [2] = assay: Pre-emergence herbicidal activity against POLCO; details: Fallopia convolvulus, 504 h, dosage 80 g/ha
From the text: as §1, with “POLCO: Polygonum convolvulus SETVI: Setaria viridis” for “ABUTH: Abutilon theophrasti ALOMY: Alopecurus myosuroides”

Avena fatua = assay: Post-emergence herbicidal activity against AVEFA; details: Avena fatua, 504 h, dosage 320 g/ha, rated about 3 weeks after treatment
Method in brief: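 Greenhouse pots of sandy loam; plants sprayed at one-leaf stage, 2 to 3 weeks after sowing, with WP or EC formulations in water plus 0.5% additive at 600 l/ha. Activity rated visually after about 3 weeks against untreated controls (100% = plants dead, 0% = like control).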

Polygonum convolvulus [3] = assay: Post-emergence herbicidal activity against POLCO; details: Fallopia convolvulus, 504 h, dosage 320 g/ha, rated about 3 weeks after treatment
Method in brief: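 Greenhouse weeds in sandy loam were sprayed at the one-leaf stage, 2–3 weeks after sowing, with WP or EC formulations plus 0.5% additive at 600 l/ha water. About 3 weeks later, damage was rated visually against untreated controls, where 100% means plants dead and 0% means like control.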

Viola tricolor = assay: Post-emergence herbicidal activity against VIOTR; details: Viola tricolor, 504 h, dosage 320 g/ha, rated about 3 weeks after treatment
Method in brief: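 Greenhouse plants in sandy loam treated at one-leaf stage, 2 to 3 weeks after sowing, by spraying WP or EC formulations with 0.5% additive at 600 l/ha water. Activity rated visually after about 3 weeks versus untreated controls, 100% = plants dead, 0% = like control.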

Amaranthus retroflexus [4] = assay: Post-emergence herbicidal activity against AMARE; details: Amaranthus retroflexus, 504 h, dosage 320 g/ha, rated about 3 weeks after treatment
Method: AMARE: Amaranthus retroflexus AVEFA: Avena fatua 2. Post-Emergence Herbicidal Action and Crop Plant Compatibility Seeds of monocotyledonous and dicotyledonous weeds and crop plants are placed in sandy loam in plastic or wood-fiber pots, covered with soil and cultivated in a greenhouse under controlled growth conditions. 2 to 3 weeks after sowing, the test plants are treated at the one-leaf stage. The compounds of the invention, formulated in the form of wettable powders (WP) or as emulsion concentrates (EC), are then sprayed onto the green parts of the plants as aqueous suspension or emulsion with addition of 0.5% additive at a water application rate of 600 l/ha (converted). After the test plants had been kept in the greenhouse under optimum growth conditions for about 3 weeks, the activity of the preparations is rated visually in comparison to untreated controls. For example, 100% activity=the plants have died, 0% activity=like control plants.

Stellaria media = assay: Pre-emergence herbicidal activity against STEME; details: Stellaria media, 504 h, dosage 80 g/ha
From the text: as §1, with “STEME: Stellaria media VERPE: Veronica persica” for “ABUTH: Abutilon theophrasti ALOMY: Alopecurus myosuroides”

Row | SMILES | pest or weed control at 80 g/ha (Alopecurus myosuroides) [%] | pest or weed control at 80 g/ha (Amaranthus retroflexus [1]) [%] | pest or weed control at 80 g/ha (Polygonum convolvulus [2]) [%] | pest or weed control at 320 g/ha (Avena fatua) [%] | pest or weed control at 320 g/ha (Polygonum convolvulus [3]) [%] | pest or weed control at 320 g/ha (Viola tricolor) [%] | pest or weed control at 320 g/ha (Amaranthus retroflexus [4]) [%] | pest or weed control at 80 g/ha (Stellaria media) [%]
1 | COC(=O)[C@H]1C[C@@H](NC(=O)[C@@]2(C)CC(c3cc(F)cc(F)c3)=NO2)CO1 (mixture of isomers) [I-09, methyl cis-4-[[(5R)-3-(3,5-difluorophenyl)-5-methyl-4H-isoxazole-5-carbonyl]amino]tetrahydrofuran-2-carboxylate] | 100 | 80 | 100 | 90 | 80 | 80 |  | 
2 | COC(=O)[C@H]1C[C@H](NC(=O)[C@@]2(C)CC(c3cc(F)cc(F)c3)=NO2)CO1 (mixture of isomers) [I-55, methyl trans-4-[[(5R)-3-(3,5-difluorophenyl)-5-methyl-4H-isoxazole-5-carbonyl]amino]tetrahydrofuran-2-carboxylate] |  |  |  | 90 | 90 | 90 | 80 | 
3 | C=C[C@]1(C(=O)N[C@@H]2CO[C@@H](C(=O)OC)C2)CC(c2cc(F)cc(F)c2)=NO1 (mixture of isomers) [I-56, methyl trans-4-[[(5S)-3-(3,5-difluorophenyl)-5-vinyl-4H-isoxazole-5-carbonyl]amino]tetrahydrofuran-2-carboxylate] |  |  |  | 100 | 90 | 90 | 90 | 
4 | CC1(C(=O)N[C@H]2CO[C@@H](C(=O)OCc3ccccc3)C2)CC(c2cccc(F)c2)=NO1 (mixture of isomers) [I-34, benzyl cis-4-[[(5RS)-3-(3-fluorophenyl)-5-methyl-4H-isoxazole-5-carbonyl]amino]tetrahydrofuran-2-carboxylate] | 100 |  | 90 | 100 |  |  | 80 | 90
5 | C=CC1(C(=O)N[C@H]2CO[C@@H](C(=O)OC)C2)CC(c2cc(Cl)cc(Cl)c2)=NO1 (relative stereo) [I-03, methyl cis-4-[[3-(3,5-dichlorophenyl)-5-vinyl-4H-isoxazole-5-carbonyl]amino]tetrahydrofuran-2-carboxylate] |  | 80 | 80 | 80 | 80 |  |  | 
6 | COC(=O)[C@H]1C[C@@H](NC(=O)C2(C)CC(c3cc(C)cc(Br)c3)=NO2)CO1 (relative stereo) [I-04, methyl cis-4-[[3-(3-bromo-5-methylphenyl)-5-methyl-4H-isoxazole-5-carbonyl]amino]tetrahydrofuran-2-carboxylate] |  |  | 90 | 100 | 80 | 80 |  | 
7 | COC(=O)[C@H]1C[C@@H](NC(=O)C2(OC)CC(c3cc(F)cc(F)c3)=NO2)CO1 (relative stereo) [I-05, methyl cis-4-[[3-(3,5-difluorophenyl)-5-methoxy-4H-isoxazole-5-carbonyl]amino]tetrahydrofuran-2-carboxylate] |  |  | 80 | 100 | 90 |  |  | 
8 | COC(=O)[C@H]1C[C@@H](NC(=O)C2(C(F)(F)F)CC(c3cc(F)cc(F)c3)=NO2)CO1 (relative stereo) [I-06, methyl cis-4-[[3-(3,5-difluorophenyl)-5-(trifluoromethyl)-4H-isoxazole-5-carbonyl]amino]tetrahydrofuran-2-carboxylate] | 80 |  | 100 | 90 | 80 | 90 | 80 | 
9 | C=CC1(C(=O)N[C@H]2CO[C@@H](C(=O)OC)C2)CC(c2cccc(F)c2)=NO1 (relative stereo) [I-07, methyl cis-4-[[3-(3-fluorophenyl)-5-vinyl-4H-isoxazole-5-carbonyl]amino]tetrahydrofuran-2-carboxylate] |  | 90 | 80 | 90 | 80 |  |  | 
10 | COC(=O)[C@H]1C[C@@H](NC(=O)C2(OC)CC(c3cc(C)cc(Br)c3)=NO2)CO1 (relative stereo) [I-08, methyl cis-4-[[3-(3-bromo-5-methylphenyl)-5-methoxy-4H-isoxazole-5-carbonyl]amino]tetrahydrofuran-2-carboxylate] |  |  | 80 | 100 | 80 | 80 |  | 
11 | COC(=O)[C@H]1C[C@@H](NC(=O)C2(OC)CC(c3ccccc3)=NO2)CO1 (relative stereo) [I-14, methyl cis-4-[(5-methoxy-3-phenyl-4H-isoxazole-5-carbonyl)amino]tetrahydrofuran-2-carboxylate] |  |  |  | 100 | 90 |  |  | 
12 | C=CC1(C(=O)NC2=C(C(=O)OCC)COC2)CC(c2cc(F)cc(F)c2)=NO1 (stereo not drawn) [I-23, ethyl 4-[[3-(3,5-difluorophenyl)-5-vinyl-4H-isoxazole-5-carbonyl]amino]-2,5-dihydrofuran-3-carboxylate] | 90 | 80 |  | 100 | 90 |  | 80 | 
13 | COC(=O)C1=C[C@H](NC(=O)C2(C)CC(c3cccc(F)c3)=NO2)CO1 (stereo partly drawn) [I-39, methyl (3S)-3-[[3-(3-fluorophenyl)-5-methyl-4H-isoxazole-5-carbonyl]amino]-2,3-dihydrofuran-5-carboxylate] |  |  | 80 | 100 | 80 | 80 | 80 | 
14 | COC(=O)[C@@]1(OC)C[C@@H](NC(=O)C2(C)CC(c3cccc(F)c3)=NO2)CO1 (stereo partly drawn) [I-47, methyl (2R,4R)-4-[[3-(3-fluorophenyl)-5-methyl-4H-isoxazole-5-carbonyl]amino]-2-methoxytetrahydrofuran-2-carboxylate] |  |  | 90 | 100 | 80 | 80 |  | 

Source: patent publication US11597724B2, “Herbicidally active 3-phenylisoxazoline-5-carboxamides of tetrahydro and dihydrofuran carboxylic acids and esters” (Bayer Aktiengesellschaft, priority 2017, dated 2023)
